Test results: patent US8877158B2, “Targeting agent to newly formed blood vessels” (FUJIFILM Corporation, priority 2009, dated 2014)

Experiments:
[1] = in vivo, 24 h; cited from earlier work
αVβ3 integrin = target: T1, αVβ3 integrin (Homo sapiens, UniProt P05106+P06756); test: Inhibition of αVβ3-integrin-mediated HUVEC adhesion by anti-αV antibody; type: cell-based; conditions: coating 0.2 μg/well; antibody-treated vs untreated HUVECs
T1 construct: many αVβ3 integrin molecules are permanently expressed on the surfaces of HUVECs; host or cells: HUVEC (normal human umbilical vein endothelial cells)
Description: In order to identify binding between R-Gel and HUVECs as αVβ3-integrin-mediated binding, experimentation was conducted to determine whether or not R-Gel-to-cell adhesion would be inhibited by blocking αVβ3 integrin with an anti-αV antibody in the R-Gel-to-cell adhesiveness tests conducted in (7) above.
Specifically, cell adhesion experiments were conducted as described in (7) above. Experiments were conducted using the R-Gel-coated plate and the fibronectin-coated plate at a coating concentration of 0.2 μg/well. The prepared HUVECs were incubated with anti-human αV monoclonal antibodies (MAB1980: CHEMICON) at a sufficient concentration at 37° C. for 30 minutes, and they are described as “antibody-treated HUVECs”. On the other hand, the prepared HUVECs were incubated with the addition of the same amount of PBS at 37° C. for 30 minutes, and they are described as ““untreated HUVECs”. Cells were inoculated on plates with addition of a solution (100 μL/well) prepared in a manner such that it contained antibody-treated HUVECs or untreated HUVECs at a concentration of 1,000,000 cells/mL. The time for cell adhesion was determined to be 1 hour at 37° C. as in the case of (7) above. Quantitative determination of the number of cells was carried out by DNA assay as in the case of (7) above.

HUVECs = test: HUVEC cell adhesiveness test on protein-coated plates (DNA assay, 1-cell area); type: cell-based, human
Description: HUVECs (normal human umbilical vein endothelial cells; Takara Bio Inc.) were used as vascular endothelial cells. It is known that many αVβ3 integrin molecules are permanently expressed on the surfaces of HUVECs. By testing cell adhesiveness of R-Gel to HUVECs, binding of R-Gel to vascular endothelial cells activated by newly formed blood vessels can be elucidated. Also, binding of R-Gel to αVβ3 integrin that has been reported to be highly expressed at newly formed blood vessel sites can be elucidated.
For culture of HUVECs, endothelial cell basic medium-2 (containing no serum) (EBM™-2) and endothelial cell medium kit-2 (2% FBS) (EGM™-2 BulletKit™) were used (Takara Bio Inc.). Upon subculture and removal of cells, an EDTA-containing 0.25% trypsin solution was used. HUVECs that had been allowed to proliferate to a sufficient amount in a T-75 flask were removed from the bottom surface of the flask, followed by centrifugation for removal of the supernatant. Then, the resultant was washed with the above endothelial cell basic medium-2 containing the endothelial cell medium kit 2. Centrifugation was performed again to remove the supernatant. […] The number of living cells was counted using cell counter. […]
DNA assay was performed for quantitative determination of the number of cells on the obtained plates. […]

neovascular site = test: Inhibition of accumulation of R-Gel in neovascular site by previous administration of cyclo-RGDfK; type: in vivo, mouse; conditions: for fluorescence intensity in the neovascular site: average±S.D.
Description: In order to evaluate whether accumulation of R-Gel in neovascular site is targeting caused by the same mechanism as that of circular RGD peptide cyclo-RGDfK, whether accumulation of R-Gel would be inhibited by previously administering a large amount of cyclo-RGDfK was examined. Unlabeled cyclo-RGDfK was dissolved in a concentration of 1 mg/ml in ultrapure water, and thereafter, 100 μL of the obtained solution was administered to a mouse via caudal vein administration. Thirty minutes later, 100 μL of Cy7-R-Gel was administered thereto via caudal vein administration. As a control, instead of cyclo-RGDfK, 100 μL of PBS (phosphate buffer) was administered to a mouse via caudal vein administration, and thirty minutes later, 100 μL of Cy7-R-Gel was administered thereto via caudal vein administration. After completion of the administration, fluorescence intensity in the neovascular site was measured over time. When the fluorescence intensity was measured 1 hour after the administration, the fluorescence intensity in the PBS administration group was 98063583±1200251 (average±S.D.), whereas the fluorescence intensity in the cyclo-RGDfK administration group was 81431011±1373625 (average±S.D.). […] Likewise, in the measurement 3 hours after the administration, the fluorescence intensity in the PBS administration group was 88124139±3438695 (average±S.D.), whereas the fluorescence intensity in the cyclo-RGDfK administration group was 60269975±1267782 (average±S.D.). In the measurement 24 hours after the administration, the fluorescence intensity in the PBS administration group was 22196881±2549892 (average±S.D.), whereas the fluorescence intensity in the cyclo-RGDfK administration group was 12763810±1927458 (average±S.D.).

[2] = tested on: tumor site and tumoral neovascular site; test: Imaging of tumor site and tumoral neovascular site of cancer-bearing animal (Colon-26 homograft); type: in vivo, BALB/c mouse; conditions: cyclo-RGDfK administered 30 minutes before Cy7-R-Gel
Description: As a tumor-bearing animal model, a cancer-bearing animal was produced. As an animal, BALB/c mouse (female, 6-week-old; Japan SLC, Inc.) was used. Tumor was produced using a cancer cell homograft model. As cancer cells, Colon-26 (which were cells derived from BALB/c mouse colon cancer) was used, and these cells were cultured in large scale in an RPMI1640 medium containing 10% fetal bovine serum. For the culture, a T-225 flask was used. Using EDTA-containing 0.25% trypsin, the growing cancer cells were removed from the bottom of the flask, and a culture supernatant was then removed by centrifugation. Thereafter, the solution was replaced with PBS (phosphate buffer), and the cell concentration was then counted using a cell counter. […]
200 μL of the Cy7-R-Gel or Cy7-animal gelatin produced in (6) above was administered to the cancer-bearing animal produced in (9) above via caudal vein administration, and a fluorescence imaging experiment was then carried out from the outside of the body of the animal.
For detection of a fluorescence signal, measurement, and imaging, Lumino image analyzer LAS5000 (a trial product of Fujifilm Corporation) was used. A visible light image and a fluorescence image were simultaneously taken, and the two images were then overlapped to identify a site from which fluorescence was emitted. […]

T1 sequence (P06756 31-889 limits assumed): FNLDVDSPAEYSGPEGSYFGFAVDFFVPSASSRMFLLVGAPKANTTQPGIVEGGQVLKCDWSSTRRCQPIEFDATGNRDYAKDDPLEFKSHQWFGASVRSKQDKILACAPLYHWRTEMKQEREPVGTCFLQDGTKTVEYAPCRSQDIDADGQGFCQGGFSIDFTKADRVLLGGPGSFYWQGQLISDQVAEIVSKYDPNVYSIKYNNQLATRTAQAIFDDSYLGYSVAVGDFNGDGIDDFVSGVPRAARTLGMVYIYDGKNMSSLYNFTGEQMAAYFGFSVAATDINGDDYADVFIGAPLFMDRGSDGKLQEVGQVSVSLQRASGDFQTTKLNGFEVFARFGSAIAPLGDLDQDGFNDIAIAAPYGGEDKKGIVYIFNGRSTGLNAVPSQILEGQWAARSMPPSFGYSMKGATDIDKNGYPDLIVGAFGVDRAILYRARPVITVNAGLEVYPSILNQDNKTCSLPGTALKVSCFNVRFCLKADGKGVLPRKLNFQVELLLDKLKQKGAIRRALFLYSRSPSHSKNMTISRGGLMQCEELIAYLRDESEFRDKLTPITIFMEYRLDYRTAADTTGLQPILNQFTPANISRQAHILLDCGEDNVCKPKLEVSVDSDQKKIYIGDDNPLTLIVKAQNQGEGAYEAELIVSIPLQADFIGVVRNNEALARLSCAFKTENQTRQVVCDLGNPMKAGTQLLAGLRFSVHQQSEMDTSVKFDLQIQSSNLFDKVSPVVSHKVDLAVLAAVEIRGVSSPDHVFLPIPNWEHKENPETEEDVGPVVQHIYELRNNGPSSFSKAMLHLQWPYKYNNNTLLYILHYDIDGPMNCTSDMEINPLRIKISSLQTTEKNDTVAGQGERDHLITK
T1 sequence (P06756 891-1048 partner limits assumed): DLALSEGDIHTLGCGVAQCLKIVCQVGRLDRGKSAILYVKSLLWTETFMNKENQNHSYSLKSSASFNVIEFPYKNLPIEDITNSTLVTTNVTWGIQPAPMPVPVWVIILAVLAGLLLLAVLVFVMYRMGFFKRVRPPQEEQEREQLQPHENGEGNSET
T1 sequence (P05106 27-788): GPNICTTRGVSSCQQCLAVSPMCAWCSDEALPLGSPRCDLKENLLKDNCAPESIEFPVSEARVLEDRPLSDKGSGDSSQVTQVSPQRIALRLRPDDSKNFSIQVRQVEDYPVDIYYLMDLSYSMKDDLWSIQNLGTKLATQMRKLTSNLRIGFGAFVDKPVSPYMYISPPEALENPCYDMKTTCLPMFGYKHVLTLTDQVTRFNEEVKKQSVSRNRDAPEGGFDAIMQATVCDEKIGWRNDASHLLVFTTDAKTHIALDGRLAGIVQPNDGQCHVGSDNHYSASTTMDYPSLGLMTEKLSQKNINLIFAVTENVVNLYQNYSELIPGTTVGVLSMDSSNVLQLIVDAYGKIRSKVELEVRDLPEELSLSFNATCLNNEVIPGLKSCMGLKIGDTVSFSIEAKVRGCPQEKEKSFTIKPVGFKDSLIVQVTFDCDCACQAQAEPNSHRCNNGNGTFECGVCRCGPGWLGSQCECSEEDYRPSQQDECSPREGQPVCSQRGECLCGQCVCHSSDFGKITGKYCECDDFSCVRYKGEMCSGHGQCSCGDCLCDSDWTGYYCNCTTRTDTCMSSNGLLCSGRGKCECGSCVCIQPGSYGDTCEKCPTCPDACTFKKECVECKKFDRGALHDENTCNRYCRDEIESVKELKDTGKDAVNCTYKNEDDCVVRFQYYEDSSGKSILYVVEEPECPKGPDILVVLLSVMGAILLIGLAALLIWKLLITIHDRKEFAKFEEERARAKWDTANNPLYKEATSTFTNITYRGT

**Q.** For cyclic-RGDyK, which “amount of the circular RGD peptide remaining in the body” value [1] is on record?
**A.** ≤ 15%

**Q.** For fibronectin, which “adhesion to HUVECs treated with anti-human αV monoclonal antibody (MAB1980)” value (αVβ3 integrin) is on record?
**A.** significantly inhibited

**Q.** What does the source list for “R-Gel: recombinant gelatin CBE3, SEQ ID NO: 1, GAP[(GXY)63]3G, 571 amino acids, 12 RGD sequences”?
**A.** adhesion to HUVECs (number of cells by DNA assay) (HUVECs; coated plates 0.02-2.0 μg/well, 1 hour at 37° C.): superior to fibronectin, Fibrogen, PSK, and G1917P; 1-cell area of HUVEC adhering to coated plate (HUVECs; from photos, ImageJ): significantly superior to Fibrogen, PSK, and G1917P; adhesion to HUVECs treated with anti-human αV monoclonal antibody (MAB1980) (αVβ3 integrin): significantly inhibited

**Q.** Which results are given for cyclo-RGDfK?
**A.** fluorescence intensity in the neovascular site (neovascular site; Cy7-R-Gel 30 min after cyclo-RGDfK (1 mg/ml, 100 μL) pre-administration, 1 hour after the administration): 81431011±1373625; fluorescence intensity in the neovascular site (neovascular site; Cy7-R-Gel 30 min after cyclo-RGDfK pre-administration, 3 hours after the administration): 60269975±1267782; fluorescence intensity in the neovascular site (neovascular site; Cy7-R-Gel 30 min after cyclo-RGDfK pre-administration, 24 hours after the administration): 12763810±1927458; effect of previous administration of cyclo-RGDfK on accumulation of R-Gel in blood vessels (neovascular site; large amount of cyclo-RGDfK administered 30 min before Cy7-R-Gel): inhibits the effect of R-Gel to accumulate in blood vessels; accumulation of R-Gel in the tumoral neovascular site and the tumor site after previous cyclo-RGDfK [2]: decreased
